The text below walks through data of US6765003B1, “3-Arylsulfonyl-2 (substituted methyl) propanoic acid derivatives as matrix metalloproteinase inhibitors” (Pharmacia Italia, SpA, priority 1999, dated 2004).

Read-outs that look alike come from different tables or passages of the source. Bounds are passed on as bounds.

Series [1] addresses T1, Human gelatinase-A (MMP-2) (Homo sapiens, UniProt P08253).
T1 sequence (P08253 110-660): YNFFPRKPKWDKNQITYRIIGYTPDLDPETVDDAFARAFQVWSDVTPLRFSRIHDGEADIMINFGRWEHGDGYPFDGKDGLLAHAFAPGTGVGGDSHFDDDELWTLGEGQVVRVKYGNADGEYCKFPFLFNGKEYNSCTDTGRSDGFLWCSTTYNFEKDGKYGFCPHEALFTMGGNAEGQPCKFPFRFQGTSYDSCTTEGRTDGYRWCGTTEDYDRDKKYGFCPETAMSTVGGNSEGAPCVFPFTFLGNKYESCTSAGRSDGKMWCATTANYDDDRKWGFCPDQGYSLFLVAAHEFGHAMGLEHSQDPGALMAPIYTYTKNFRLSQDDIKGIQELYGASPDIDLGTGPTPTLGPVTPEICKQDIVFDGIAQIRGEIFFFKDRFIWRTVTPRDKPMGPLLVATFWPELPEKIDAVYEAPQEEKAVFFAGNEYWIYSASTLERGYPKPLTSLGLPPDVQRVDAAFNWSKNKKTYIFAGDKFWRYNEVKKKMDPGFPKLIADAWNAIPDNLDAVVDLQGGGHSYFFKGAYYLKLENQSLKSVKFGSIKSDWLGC
Nature of the series: MMP inhibition, internal fluorescence quenching method (MCA peptide substrate). It counts as biochemical. The method, then:
(§1) The inhibitory activity of the compounds of the present invention was evaluated in vitro against one or more of the MMP enzymes (gelatinases, collagenases, stromelysins) using the internal fluorescence quenching method. The assay method is based on the hydrolysis of the MMP substrate, MCA-Pro-Leu-Gly-Leu-DPA-Ala—Arg-NH2 at 37° C. (see Knight, C. G. et al., FEBS Lett. 296:263-266, 1992). The enzymes cleave at the Gly-Leu bond removing the internally quenching DPA group. The release of the highly fluorescent peptide MCA-Pro-Leu was monitored with a LS50 Perkin Elmer fluorimeter equipped with a Peltier-thermostated cell holder using an excitation wavelength of 326 nm and an emission wavelenght of 398 nm. Slis were set at 14/14. Proper determination of steady-state rates of substrate cleavage required a preincubation at 37° C. of 15 minutes to allow for complete equilibration of the enzyme-inhibitor complex. […] Rates of substrate hydrolysis, expressed as fluorescence arbitrary units per minute, were calculated by least-square analysis of the steady-state linear progression curves. The steady-state rates were fitted to the Michaelis equation describing competitive inhibition; in particular, Ki,app were determined by fining the data to the tight-binding equation of Morrison (Biochem. Biophys. Acta, 185:269-286, 1969) by non-linear methods.
(§2) Human gelatinase-A (MMP-2) was obtained as penzyme (72 kDa) and was activated with 1 mM 4-aminophenylmercuric acetate for 30 min at 37° C. immediately prior to use. The inhibitor was diluted into the assay from a stock solution in 100% DMSO, and controls substituted an equal volume of DMSO so that the final DMSO concentration from inhibitor and substrate dilution in all assays was 1%. The concentration of MMP-2 was 19.2 picoM. For compounds of formula (I) where X is —OH, the assay buffer was 50 mM Tris/HCl pH 6.5 containing 150 mM NaCl, 10 mM CaCl2, 0.01 mM ZnCl2 and 0.05% Brij35 (Protocol A). Other conditions were as stated above.
The compounds of formula (I) where X is —NHOH were tested against MMP-2 and MMP-1 under the conditions stated above, but the assay solution was buffered at pH 7.4 (Protocol B).

For series [2], the target named is T2, Human fibroblast collagenase (MMP-1) (Homo sapiens, UniProt P03956).
T2 sequence (P03956 101-269): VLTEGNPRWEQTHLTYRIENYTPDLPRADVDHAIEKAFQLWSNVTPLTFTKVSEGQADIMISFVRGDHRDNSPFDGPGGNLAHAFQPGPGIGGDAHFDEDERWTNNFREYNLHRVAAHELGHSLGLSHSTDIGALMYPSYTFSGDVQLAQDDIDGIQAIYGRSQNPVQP
The series is described as above. It counts as biochemical. The method, then:
as §1, §2
Assay conditions were the same as above, but enzyme concentration was 200 picoM.

Another series deals with rats. To be noted: rat, in vivo. The source says: Questions remain concerning their specificity, bioavailability, and potential long-tens toxicity (see Hodgson, J., ‘Remodeling MMPIs’, Biotechnology 13:554-557, 1995), especially because they are primarily intended (in arthritis and cancer, at least) for prolonged therapy. […] Although the cause of this toxicity is not well understood at this moment, it is thought to arise from an impairment in the normal tissue remodeling that is governed by one or more of the MMPs, primarily fibroblast collagenase (MMP-1). […] Thus, there is a strong need for better MMPIs, especially as far as the properties referred to above (specificity, bioavailability, long-term toxicity) are concerned.

The test system of the next series is patients. To be noted: may be severe and dose-limiting; cited from earlier work.
The mark [3] stands for this setting: Protocol A: Tris/HCl pH 6.5, 37° C., MMP-2 19.2 picoM, substrate 3 μM, carboxylic acids, read-out: MMP-2 Ki.

For orientation: melting point means the temperature of the solid-liquid transition. The term Ki denotes the dissociation constant of the complex between target and ligand, obtained from inhibition or displacement.

In the case of `Cc1cc(SCC(CS(=O)(=O)c2ccc(-c3ccc(Cl)cc3)cc2)C(=O)O)nc(C)n1` (stereo not shown) [Example 26, 3-[(4′-chloro[1,1′-biphenyl]-4-yl)sulfonyl]-2-[[(2,6-dimethyl-4-pyrimidinyl)sulfanyl]methyl]propanoic acid], the melting point was 170 to 172 °C. Also, the Ki in series [1] (setting [3]) is 26.8 nM. `O=C(O)C(CSc1ncccn1)CS(=O)(=O)c1ccc(-c2ccc(Cl)cc2)cc1` (stereo not shown) [Example 22, 3-[(4′-chloro[1,1′-biphenyl]-4-yl)sulfonyl]-2-[(2-pyrimidinylsulfanyl)methyl]-propanoic acid] had a melting point of 166 to 168 °C. Also, the Ki in series [2] (Protocol A: pH 6.5, 37° C., enzyme 200 picoM, substrate 3 μM, carboxylic acids, read-out: MMP-1 Ki) worked out at 8030 nM. The Ki in series [1] (setting [3]) is 8 nM. As for `CN1C(=O)N(CC(CS(=O)(=O)c2ccc(-c3ccccc3)cc2)C(=O)O)C(=O)C1(C)C` (stereo not shown) [Example 7], the melting point is > 200 °C (dec.). The Ki in series [1] (setting [3]) was found to be 42 nM.

For the compound `CC1(C)NC(=O)N(CC(CS(=O)(=O)c2ccc(-c3ccc(Cl)cc3)cc2)C(=O)O)C1=O` (stereo not shown) [Example 9, 3-[(4′-chloro[1,1′-biphenyl]-4-yl)sulfonyl]-2-[(4,4-dimethyl-2,5-dioxo-1-imidazolidinyl)methyl]propanoic acid], the melting point was 242 to 245 °C. For the same compound, in series [1] (setting [3]), the inhibitory constant (Ki) stood at 3 nM.

Compound `O=C(NO)C(CN1C(=O)CNC1=O)CS(=O)(=O)c1ccc(-c2ccc(Cl)cc2)cc1` (stereo not shown) [Example 12, 3-[(4′-chloro[1,1′-biphenyl]-4-yl)sulfonyl]-N-hydroxy-2-[(2,5-dioxo-1-imidazolidinyl)methyl]propanamide] displayed a melting point of 150 to 156 °C. Moreover, the Ki in series [2] (Protocol B: pH 7.4, 37° C., hydroxamic acids (X is —NHOH), read-out: MMP-1 Ki (picoM)) amounted to 17.1 nM. Also, in series [1] (Protocol B: pH 7.4, 37° C., hydroxamic acids (X is —NHOH), read-out: MMP-2 Ki (picoM)), the inhibitory constant (Ki) stood at 0.069 nM. In turn, `Cn1nnnc1SCC(CS(=O)(=O)c1ccc(-c2ccc(Cl)cc2)cc1)C(=O)O` (stereo not shown) [Example 32, 3-[(4′-chloro[1,1′-biphenyl]-4-yl)sulfonyl]-2-[[(1-methyl-1H-tetrazol-5-yl)sulfanyl]methyl]propanoic acid] came in with a melting point of 98 to 100 °C. Further, the Ki in series [1] (setting [3]) stood at 26 nM. For `O=C(O)C(CN1C(=O)CNC1=O)CS(=O)(=O)c1ccc(-c2ccc(Cl)cc2)cc1` (stereo not shown) [Example 11, 3-[(4′-chloro[1,1′-biphenyl]-4-yl)sulfonyl]-2-[(2,5-dioxo-1-imidazolidinyl)methyl]propanoic acid] the same measures were 188 to 190 °C and 4 nM. `O=C(O)C(CSc1ccccc1)CS(=O)(=O)c1ccc(-c2ccc(Cl)cc2)cc1` (racemic) [Example 1, 3-[(4′-chloro[1,1′-biphenyl]-4-yl)sulfonyl]-2-[(phenylsulfanyl)methyl]propanoic acid] registered a melting point of 158 to 162 °C. In addition, the inhibition constant (Ki) in series [1] (setting [3]) was found to be 8.3 nM. With `O=C(O)C(CSc1nccs1)CS(=O)(=O)c1ccc(-c2ccc(Cl)cc2)cc1` (stereo not shown) [Example 28, 3-[(4′-chloro[1,1′-biphenyl]-4-yl)sulfonyl]-2-[(1,3-thiazol-2-ylsulfanyl)methyl]propanoic acid], the melting point lay within 152 to 154 °C. For the same compound, the Ki in series [1] (setting [3]) was 6.6 nM. For `Cc1cc(C)nc(SCC(CS(=O)(=O)c2ccc(-c3ccc(Cl)cc3)cc2)C(=O)O)n1` (stereo not shown) [Example 27, 3-[(4′-chloro[1,1′-biphenyl]-4-yl)sulfonyl]-2-[[(4,6-dimethyl-2-pyrimidinyl)sulfanyl]methyl]propanoic acid] the same measures were 170 to 172 °C and 22.8 nM. As for `CNC(=O)[C@@H](NC(=O)[C@H](CC(C)C)[C@H](O)C(=O)NO)C(C)(C)C` [Marimastat], the “joint toxicity (histology of stifle joints)” value in the series on rats is listed as “elicited histological alteration of stifle joints”. `CNC(=O)[C@@H](NC(=O)[C@@H](CC(=O)NO)CC(C)C)C(C)(C)C` [Ro31-9790]: the “joint toxicity (histology of stifle joints)” value in the series on rats is listed as “elicited histological alteration of stifle joints”. As for `COc1ccc(S(=O)(=O)N(Cc2cccnc2)[C@@H](C(=O)NO)C(C)C)cc1` [CGS27023A], the “musculoskeletal syndrome in patients” value in the series on patients is “cause a musculoskeletal syndrome characterized by joint pain and stiffness”. For the compound `Nc1nnc(SCC(CS(=O)(=O)c2ccc(-c3ccc(Cl)cc3)cc2)C(=O)O)s1` (stereo not shown) [Example 23, 3-[(4′-chloro[1,1′-biphenyl]-4-yl)sulfonyl]-2-[[(5-amino-1,3,4-thiadiazol-2-yl)sulfanyl]methyl]propanoic acid], the melting point lay in the range of 184 to 186 °C. In series [1] (setting [3]), the inhibitory constant (Ki) is 25 nM. As for `CC1(C)SCCN(S(=O)(=O)c2ccc(Oc3ccncc3)cc2)[C@H]1C(=O)NO` [AG3340], in the series with patients, the “musculoskeletal syndrome in patients” value was “cause a musculoskeletal syndrome characterized by joint pain and stiffness”.
